Where two headings read alike, the source gives them in different places.
How the values were obtained:
HSV-1 strain F or KOS = assay: Inhibition of herpes simplex virus (HSV-1) replication in cell culture (BHK-21 cells, glycoprotein C ELISA); format: cell-based
How it was run: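 Replication readout: ELISA for HSV-1 late glycoprotein C (mAb C11, peroxidase-OPD, 450 nm) on glutaraldehyde-fixed cells. Monolayers (~50,000 cells/well) were infected with strain F or KOS (MOI 0.05 PFU/cell), then incubated 24 h at 37° with compound in 2% FBS α-MEM. EC50 derived from % inhibition.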

HCMV (strain AD169) = assay: Inhibition of HCMV replication, ELISA assay (Hs-68 cells); format: cell-based, Human Cytomegalovirus (HCMV); conditions: read-out: ELISA CMV EC50
How it was run: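 EC50 derived from % inhibition of viral replication, read as p28 late-protein ELISA signal (mAb UL99, peroxidase/OPD, 450 nm) on fixed cells. Read-out came 8 days post-infection at 37 °C in DMEM with 5% FBS plus compound, after 2 h adsorption of AD169 at MOI 0.01 PFU/cell onto near-confluent Hs-68 cells.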

[1] = Human alphaherpesvirus 1, BHK-21, Group 1 Table 3 entries
[2] = Human betaherpesvirus 5, AD169, Hs68, Group 1 Table 3 entries
[3] = Human alphaherpesvirus 1, BHK-21, Group 1 Table 2 entries
[4] = Human betaherpesvirus 5, AD169, Hs68, Group 1 Table 2 entries
[5] = Human alphaherpesvirus 1, BHK-21, Group 1 Table 1 entries
[6] = Human betaherpesvirus 5, AD169, Hs68, Group 1 Table 1 entries
[7] = Human alphaherpesvirus 1, BHK-21, Group 1 Table 5 entries
[8] = Human betaherpesvirus 5, AD169, Hs68, Group 1 Table 5 entries

CN(C(=O)CN(Cc1ccccc1)C(=O)C1CCCCC1)c1ccc(-c2csc(N)n2)cc1 [Example 1]
EC50 (HSV-1 strain F or KOS; [1]): 16 nM | EC50 (HCMV (strain AD169); [2]): > 46000 nM

Nc1nc(-c2ccc(NC(=O)CCNCc3ccccc3)cc2)cs1 [Example 1]
EC50 (HSV-1 strain F or KOS; [3]): 6000 nM | EC50 (HCMV (strain AD169); [4]): 3200 nM

Nc1nc(-c2ccc(NC(=O)CNCc3ccccc3)cc2)cs1 [Example 1]
EC50 (HSV-1 strain F or KOS; [5]): 2700 nM | EC50 (HCMV (strain AD169); [6]): 25000 nM

Nc1nc(-c2ccc(NC(=O)CCN(Cc3ccccc3)Cc3ccccc3)cc2)cs1 [Example 2]
EC50 (HSV-1 strain F or KOS; [3]): 2200 nM | EC50 (HCMV (strain AD169); [4]): 550 nM

CC(C)(C)OC(=O)N[C@@H](Cc1ccccc1)C(=O)Nc1ccc(-c2csc(N)n2)cc1 [Example 3]
EC50 (HSV-1 strain F or KOS; [7]): 16 nM | EC50 (HCMV (strain AD169); [8]): 140 nM

Nc1nc(-c2ccc(NC(=O)CCN(Cc3ccccc3)C(=O)c3ccccc3)cc2)cs1 [Example 3]
EC50 (HSV-1 strain F or KOS; [3]): 2200 nM | EC50 (HCMV (strain AD169); [4]): 1200 nM

Nc1nc(-c2ccc(NC(=O)CNCCCc3ccccc3)cc2)cs1 [Example 3]
EC50 (HSV-1 strain F or KOS; [5]): 18000 nM | EC50 (HCMV (strain AD169); [6]): 1800 nM

CC(C)(C)OC(=O)N[C@H](Cc1ccccc1)C(=O)Nc1ccc(-c2csc(N)n2)cc1 [Example 4]
EC50 (HSV-1 strain F or KOS; [7]): 570 nM | EC50 (HCMV (strain AD169); [8]): 250 nM

Nc1nc(-c2ccc(NC(=O)CCNCc3cccc(F)c3)cc2)cs1 [Example 4]
EC50 (HSV-1 strain F or KOS; [3]): 2200 nM | EC50 (HCMV (strain AD169); [4]): 6600 nM

O=C(CN(Cc1ccccc1)C(=O)C1CCCCC1)Nc1ccc(-c2cscn2)cc1 [Example 5]
EC50 (HSV-1 strain F or KOS; [1]): 12 nM | EC50 (HCMV (strain AD169); [2]): > 63000 nM

CNc1nc(-c2ccc(NC(=O)CN(Cc3ccccc3)C(=O)c3ccccc3)cc2)cs1 [Example 6]
EC50 (HSV-1 strain F or KOS; [1]): 12 nM | EC50 (HCMV (strain AD169); [2]): 51000 nM

Nc1nc(-c2ccc(NC(=O)[C@H](Cc3ccccc3)NCc3ccccc3)cc2)cs1 [Example 6]
EC50 (HSV-1 strain F or KOS; [7]): 830 nM | EC50 (HCMV (strain AD169); [8]): 140 nM

CN[C@@H](Cc1ccccc1)C(=O)Nc1ccc(-c2csc(N)n2)cc1 [Example 8]
EC50 (HSV-1 strain F or KOS; [7]): 14000 nM | EC50 (HCMV (strain AD169); [8]): 1100 nM

Nc1nc(-c2ccc(NC(=O)CCN(Cc3ccccc3)C(=O)C3CCCCC3)cc2)cs1 [Example 8]
EC50 (HSV-1 strain F or KOS; [3]): 1100 nM | EC50 (HCMV (strain AD169); [4]): 8600 nM

Nc1nc(-c2ccc(NC(=O)[C@@H](Cc3ccccc3)N(Cc3ccccc3)C(=O)C3CCCCC3)cc2)cs1 [Example 9]
EC50 (HSV-1 strain F or KOS; [7]): 290 nM | EC50 (HCMV (strain AD169); [8]): 4000 nM

C[C@H](NCC(=O)Nc1ccc(-c2csc(N)n2)cc1)c1ccccc1 [Example 10]
EC50 (HSV-1 strain F or KOS; [5]): 2200 nM | EC50 (HCMV (strain AD169); [6]): 2200 nM

Nc1nc(-c2ccc(NC(=O)CCNC3Cc4ccccc4C3)cc2)cs1 [Example 10]
EC50 (HSV-1 strain F or KOS; [3]): 3900 nM | EC50 (HCMV (strain AD169); [4]): 7500 nM

CN(C)c1nc(-c2ccc(NC(=O)CN(Cc3ccccc3)C(=O)c3ccccc3)cc2)cs1 [Example 11]
EC50 (HSV-1 strain F or KOS; [1]): 24 nM | EC50 (HCMV (strain AD169); [2]): 3500 nM

C[C@@H](NCC(=O)Nc1ccc(-c2csc(N)n2)cc1)c1ccccc1 [Example 11]
EC50 (HSV-1 strain F or KOS; [5]): 1300 nM | EC50 (HCMV (strain AD169); [6]): 19000 nM

Nc1nc(-c2ccc(NC(=O)CCN(C(=O)c3cccnc3)C3Cc4ccccc4C3)cc2)cs1 [Example 12]
EC50 (HSV-1 strain F or KOS; [3]): 7600 nM | EC50 (HCMV (strain AD169); [4]): 6500 nM

CC(C)(C)OC(=O)N(CCC(=O)Nc1ccc(-c2csc(N)n2)cc1)C1Cc2ccccc2C1 [Example 14]
EC50 (HSV-1 strain F or KOS; [3]): 1800 nM | EC50 (HCMV (strain AD169); [4]): 200 nM

CC(C)(C)OC(=O)N(CCC(=O)Nc1ccc(-c2csc(N)n2)cc1)Cc1ccccc1 [Example 15]
EC50 (HSV-1 strain F or KOS; [3]): 640 nM | EC50 (HCMV (strain AD169); [4]): 11300 nM

CN(CC(=O)Nc1ccc(-c2csc(N)n2)cc1)Cc1ccccc1 [Example 15]
EC50 (HSV-1 strain F or KOS; [5]): 950 nM | EC50 (HCMV (strain AD169); [6]): 6200 nM

Nc1nc(-c2ccc(NC(=O)CCN(Cc3ccccc3)C(=O)OCc3ccccc3)cc2)cs1 [Example 16]
EC50 (HSV-1 strain F or KOS; [3]): 2600 nM | EC50 (HCMV (strain AD169); [4]): 7000 nM

Nc1nc(-c2ccc(NC(=O)CN(Cc3ccccc3)Cc3ccccc3)cc2)cs1 [Example 16]
EC50 (HSV-1 strain F or KOS; [5]): 450 nM | EC50 (HCMV (strain AD169); [6]): 3800 nM

Nc1nc(-c2ccc(NC(=O)CCN(Cc3ccccc3)CC3CCCCC3)cc2)cs1 [Example 17]
EC50 (HSV-1 strain F or KOS; [3]): 1800 nM | EC50 (HCMV (strain AD169); [4]): 4700 nM

CC(=O)Nc1nc(-c2ccc(NC(=O)CN(Cc3ccccc3)C(C)=O)cc2)cs1 [Example 18]
EC50 (HSV-1 strain F or KOS; [1]): > 30000 nM | EC50 (HCMV (strain AD169); [2]): 2800 nM

C[C@@H](c1ccccc1)N(CCC(=O)Nc1ccc(-c2csc(N)n2)cc1)C(=O)OC(C)(C)C [Example 18]
EC50 (HSV-1 strain F or KOS; [3]): 1600 nM | EC50 (HCMV (strain AD169); [4]): 2900 nM
